Reference: patent US8497371B2, “Pipemidic acid derivative autotaxin inhibitors” (University of Memphis Research Foundation, priority 2009, dated 2013)
Entries after “also recorded” stand apart in the source; their conditions may differ. Where two headings read alike, the source gives them in different places.

Experiments:
human NPP6 = molecular target: T1, human NPP6 (Homo sapiens, UniProt Q6UWR7); assay: Determination of NPP6 inhibition (pNPPC substrate); format: biochemical; conditions: 10 μM inhibitor
T1 construct: transfected with human NPP6ex^51 or human NPP7ex expression plasmids; made in house; host or cells: HEK293 cells, transient transfection, pcDNA3.1(+); unconcentrated conditioned medium (CM)
T1 sequence (Q6UWR7 23-419 limits assumed): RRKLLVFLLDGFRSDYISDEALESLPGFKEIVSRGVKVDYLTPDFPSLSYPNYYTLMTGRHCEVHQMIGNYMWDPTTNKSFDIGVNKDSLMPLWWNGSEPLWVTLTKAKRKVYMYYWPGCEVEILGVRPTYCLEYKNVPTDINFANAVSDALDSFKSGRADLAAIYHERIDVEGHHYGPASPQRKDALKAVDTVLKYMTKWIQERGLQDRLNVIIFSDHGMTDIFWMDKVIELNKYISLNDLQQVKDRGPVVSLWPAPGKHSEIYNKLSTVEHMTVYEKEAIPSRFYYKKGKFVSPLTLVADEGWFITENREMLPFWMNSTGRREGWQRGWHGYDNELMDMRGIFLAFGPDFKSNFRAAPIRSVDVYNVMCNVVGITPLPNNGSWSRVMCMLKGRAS
Experimental: (§1) Inhibitor selectivity was assayed using p-nitrophenylphosphoryl-choline (pNPPC) (Sigma-Aldrich, St. Louis, Mo.) as substrate for NPP6 and NPP7. The final volume (60 μL) included 20 μL (CM, NPP6 or CCM, NPP7, 20 μL inhibitor (10 μM including 1% DMSO) in assay buffer, and 20 μL pNPPC (10 mM, NPP6 or 1 NPP7) in assay buffer. NPP6 assay buffer contained 500 mM NaCl, 0.05% Triton X-100, 100 mM Tris-HCl (pH 9.0), whereas NPP7 assay buffer was comprised of 50 mM Tris HCl, pH 8.5, 150 mM NaCl, and 10 mM taurocholic acid. However, unlike the published methods, EDTA was not added to the NPP7 assay buffer. All assays were performed in 96-well, half area plates (Corning Inc., Lowell, Mass.) at 37° C. with data collected at 2 minute intervals using a Synergy2 absorbance plate reader (BioTek, Winooski, Vt.). Results are shown at the one hour time point, when all absorbance changes as a function of time were linear. Readings were normalized to vehicle control after subtraction of absorbance in the absence of CM or CCM. Data are shown as the mean±S.D. of at least three wells. All experiments were repeated twice and representative results are shown.
(§2) Assays were performed with CM or CCM from HEK293 cells transiently transfected with NPP6 and 7 expression plasmids, respectively. HEK293 cells were seeded in Dulbecco's modified Eagle's medium (DMEM) containing 10% fetal bovine serum, 100 U/ml penicillin, 100 μg/ml streptomycin (Hyclone, Logan, Utah), and 2 mM L-glutamine. HEK293 cells were grown overnight at 37° C. under 5% CO2 to 80% confluence. The cells were then transfected with human NPP6ex^51 or human NPP7ex expression plasmids in the pcDNA3.1(+) mammalian vector in the presence of Polyfect Transfection Reagent (Hyclone, Logan, Utah). Six hours after transfection, the culture medium was changed to serum free DMEM containing L-glutamine and cells were incubated for 48 hours. Expressed protein was collected (NPP6 and NPP7) and concentrated ˜10×(NPP7) using 10 kDa molecular weight cutoff filters (Millipore, Beverly, Mass.) in an Amicon pressure cell (Millipore, Beverly, Mass.).

human NPP7 = molecular target: T2, human NPP7 (Homo sapiens, UniProt Q6UWV6); assay: Determination of NPP7 inhibition (pNPPC substrate); format: biochemical; conditions: 10 μM inhibitor
T2 construct: transfected with human NPP6ex^51 or human NPP7ex expression plasmids; made in house; host or cells: HEK293 cells, transient transfection, pcDNA3.1(+); conditioned medium concentrated about 10x (CCM)
T2 sequence (Q6UWV6 22-433 limits assumed): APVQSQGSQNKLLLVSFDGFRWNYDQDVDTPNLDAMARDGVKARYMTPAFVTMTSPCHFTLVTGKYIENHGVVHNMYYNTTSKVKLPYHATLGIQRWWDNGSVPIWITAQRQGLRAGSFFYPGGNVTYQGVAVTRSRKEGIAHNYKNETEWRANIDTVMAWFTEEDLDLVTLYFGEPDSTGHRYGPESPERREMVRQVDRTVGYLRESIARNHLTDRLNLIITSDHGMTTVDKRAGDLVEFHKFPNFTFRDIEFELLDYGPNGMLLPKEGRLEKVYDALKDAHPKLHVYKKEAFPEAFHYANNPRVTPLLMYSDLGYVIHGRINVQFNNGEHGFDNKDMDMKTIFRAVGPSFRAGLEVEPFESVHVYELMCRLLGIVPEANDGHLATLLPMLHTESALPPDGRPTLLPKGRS
Experimental: as §1, §2

A2058 cells = assay: A2058 cell migration (scratch closure); format: cell-based; conditions: 30 μM inhibitor, 48 hours; for ATX-stimulated cell migration: ATX 100 ng/ml; for LPC+ATX-stimulated cell migration: LPC 18:1 10 μM + ATX 100 ng/ml; for LPC-stimulated cell migration: LPC 18:1 10 μM
Experimental: A2058 cells were seeded in 96-well plates at a density of 50,000 cells per well in complete growth medium (DMEM+10% FBS+penicillin/streptomycin+L-glutamine). Cells were allowed to equilibrate for 24 hours at 37° C. with 5% CO2. Cells were then serum-deprived for 24 hours in DMEM+0.1% BSA+penicillin/streptomycin+L-glutamine (serum-free medium). […] The width of the injury was measured at T0, 4 hours (data not shown), 24 hours (data not shown), and 48 hours (shown above) after injury/treatment using the 10× objective of the phase-contrast microscope and the Micron USB software package. Data represent mean percent closure±SD. n=3 for each experiment. […] However, these reductions were also not statistically significant.

ATX [1] = molecular target: T3, ATX (Homo sapiens, UniProt Q13822); design: conditioned serum-free medium (CCM) from MDA-MB-435 cells as the source of ATX; endogenous in cells; host or cells: MDA-MB-435 cells (about 10x concentrated serum-free conditioned medium); conditions: cited from earlier work
ATX [2] = molecular target: T3, ATX; conditions: for Inhibition Mechanism: FS-3 substrate
ATX [3] = molecular target: T3, ATX; assay: ATX inhibition assay with FS-3 substrate; format: biochemical; design: conditioned serum-free medium (CCM) from MDA-MB-435 cells as the source of ATX; endogenous in cells; host or cells: MDA-MB-435 cells (about 10x concentrated serum-free conditioned medium); conditions: for % Response at 10 μM (FS-3): 10 μM compound, FS-3 hydrolysis normalized to vehicle control (low = strong inhibition), mean ± S.D.; for single dose response comparison by aromatic substituent and position: Table 2, same values as % Response at 10 μM; for inhibition at 10 µM: single dose 10 μM, % inhibition, read-out: inhibition of ATX-mediated hydrolysis of FS-3
Experimental: ATX inhibition was assayed using the substrate FS-3 (Echelon Biosciences, Inc., Salt Lake City, Utah, USA). The FS-3 assay used ˜10 times concentrated conditioned serum-free medium (CCM) from MDA-MB-435 cells as the source of ATX, while CCM comprised one-third of the total volume.
All assays were performed in 96-well plates with data read at 1 minute intervals by a Synergy2 system (BioTek, Winooski, Vt.). […] Results are shown at one hour, at which point all fluorescence and absorbance changes as a function of time were linear. All readings were normalized to vehicle control after subtraction of fluorescence in the absence of CCM. Data are shown as the mean±S.D. of at least three wells. All experiments were repeated at least twice and results are shown.

ATX [4] = molecular target: T3, ATX; assay: biochemical
[5] = Ki (μM), FS-3 substrate, for mixed mode Ki=IC50 assumed
[6] = Ki (nM), competitive inhibitors

SMILES	mechanism of ATX inhibition (ATX [2])	Inhibition Mechanism (ATX [2])	% Response at 10 μM (FS-3) (ATX [3]) [%]	single dose response comparison by aromatic substituent and position (ATX [3])	inhibition at 10 µM (ATX [3]) [%]	IC50 (ATX [3]; FS-3 substrate) [nM]	IC50 (ATX [3]; Substrate FS-3 (1 μM)) [nM]	Ki (ATX [4]; [5]) [µM]	Ki (ATX [4]; Ki) [µM]	Ki (ATX [4]; [6]) [µM]	effect on activity of NPP6 (human NPP6)	effect on activity of NPP7 (human NPP7)	ATX-stimulated cell migration (A2058 cells)	LPC+ATX-stimulated cell migration (A2058 cells)	LPC-stimulated cell migration (A2058 cells)	mechanism of inhibition (reported) (ATX [1])	Ki (ATX [1]; read-out: Ki (reported)) [nM]	potency relative to the lead compound (ATX [2])
CCn1cc(C(=O)O)c(=O)c2cnc(N3CCN(C(=S)Nc4cc(Cl)ccc4Cl)CC3)nc21 [Compound 20, 2-(4-{[(2,5-dichlorophenyl)amino]carbonothioyl}-1-piperazinyl)-8-ethyl-5-oxo-5,8-dihydropyrido[2,3-d]pyrimidine-6-carboxylic acid]											None of the compounds affected the activity	None of the compounds affected the activity	appeared to decrease	appeared to decrease	appeared to decrease			
CCCCCCCCc1ccc(CCC(N)(CO)COP(=O)(O)O)cc1 (centres unmarked) [FTY720-phosphate]																competitive	200	
CCCCCCCCCCCCC/C=C/[C@@H](O)[C@@H](N)COP(=O)(O)O [Compound S1P, sphingosine 1-phosphate]																mixed-mode		
N[C@@H](Cc1c[nH]cn1)C(=O)O [L-histidine]																non-competitive		

More lines, main results first:

mechanism of ATX inhibition (ATX [2])	Inhibition Mechanism (ATX [2])	% Response at 10 μM (FS-3) (ATX [3]) [%]	single dose response comparison by aromatic substituent and position (ATX [3])	inhibition at 10 µM (ATX [3]) [%]	IC50 (ATX [3]; FS-3 substrate) [nM]	IC50 (ATX [3]; Substrate FS-3 (1 μM)) [nM]	Ki (ATX [4]; [5]) [µM]	Ki (ATX [4]; Ki) [µM]	Ki (ATX [4]; [6]) [µM]	SMILES	effect on activity of NPP6 (human NPP6)	effect on activity of NPP7 (human NPP7)	ATX-stimulated cell migration (A2058 cells)	LPC+ATX-stimulated cell migration (A2058 cells)	LPC-stimulated cell migration (A2058 cells)	mechanism of inhibition (reported) (ATX [1])	Ki (ATX [1]; read-out: Ki (reported)) [nM]	potency relative to the lead compound (ATX [2])
mixed-mode	Mixed	9.7 ± 0.9	9.7 ± 0.9	≥ 50						CCn1cc(C(=O)O)c(=O)c2cnc(N3CCN(C(=S)Nc4cccc(Cl)c4)CC3)nc21 [Compound 14, 2-(4-{[(3-chlorophenyl)amino]carbonothioyl}-1-piperazinyl)-8-ethyl-5-oxo-5,8-dihydropyrido[2,3-d]pyrimidine-6-carboxylic acid]	None of the compounds affected the activity	None of the compounds affected the activity	appeared to decrease	appeared to decrease	appeared to decrease			
uncompetitive	Uncompetitive	36.2 ± 0.9	36.2 ± 0.9	≥ 50	1500	1500	1.4			CCn1cc(C(=O)O)c(=O)c2cnc(N3CCN(C(=S)Nc4ccc(C(F)(F)F)cc4)CC3)nc21 [Compound 31, 2-(4-{[(4-trifluoromethylphenyl)amino]carbonothioyl}-1-piperazinyl)-8-ethyl-5-oxo-5,8-dihydropyrido[2,3-d]pyrimidine-6-carboxylic acid]	None of the compounds affected the activity	None of the compounds affected the activity						at least as potent as the lead compound; also recorded: approximately equivalent to the lead
mixed-mode	Mixed	41.9 ± 0.8		≥ 50	13500 ± 1300		13.5	1.7 to 13.5		CCn1cc(C(=O)O)c(=O)c2cnc(N3CCN(C(=S)Nc4cccc(C)c4)CC3)nc21 [Compound 13, 2-(4-{[(3-methylphenyl)amino]carbonothioyl}-1-piperazinyl)-8-ethyl-5-oxo-5,8-dihydropyrido[2,3-d]pyrimidine-6-carboxylic acid]	None of the compounds affected the activity	None of the compounds affected the activity						as potent as or significantly less potent than the lead
competitive	Competitive	34.1 ± 3.0		≥ 50	4400 ± 1500	4400 ± 1500		0.16	0.03 to 0.43	CCn1cc(C(=O)O)c(=O)c2cnc(N3CCN(C(=S)Nc4cc(C(F)(F)F)cc(C(F)(F)F)c4)CC3)nc21 [Compound 18, 2-(4-{[(3,5-bis(trifluoromethyl)phenyl)amino]carbonothioyl}-1-piperazinyl)-8-ethyl-5-oxo-5,8-dihydropyrido[2,3-d]pyrimidine-6-carboxylic acid]	None of the compounds affected the activity	None of the compounds affected the activity						at least as potent as the lead compound
competitive	Competitive	28.6 ± 2.0		≥ 50	12100 ± 2400	12100	0.43		0.03 to 0.43	CCn1cc(C(=O)O)c(=O)c2cnc(N3CCN(C(=S)Nc4ccc5nsnc5c4)CC3)nc21 [Compound 7, 2-(4-{[(3-benzothiadiazolphenyl)amino]carbonothioyl}-1-piperazinyl)-8-ethyl-5-oxo-5,8-dihydropyrido[2,3-d]pyrimidine-6-carboxylic acid]	None of the compounds affected the activity	None of the compounds affected the activity						at least as potent as the lead compound
